Source: PubChem BioAssay (NCI)
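The compound was tested at five concentrations on cells cultured in 96-well plates, with a 48-hour exposure period. TGI denotes the concentration required for complete inhibition of growth.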

How the values were obtained:
Experiment in all cases: NCI anticancer screen, dose series, 48 h
[1] = test system: KM12 colon
[2] = test system: IGROV1 ovarian
[3] = test system: LOX IMVI melanoma
[4] = test system: SK-OV-3 ovarian
[5] = test system: UACC-257 melanoma
[6] = test system: M14 melanoma
[7] = test system: NCI-H23 lung
[8] = test system: HOP-92 NSCLC
[9] = test system: HCC-2998 colon
[10] = test system: SK-MEL-5 melanoma
[11] = test system: NCI/ADR-RES ovarian
[12] = test system: MDA-MB-435
[13] = test system: SN12C renal
[14] = test system: SK-MEL-28 melanoma
[15] = test system: A498 renal
[16] = test system: BT-549 breast
[17] = test system: K-562 leukemia
[18] = test system: SW-620 colon
[19] = test system: COLO 205 colon
[20] = test system: DU-145 prostate
[21] = test system: OVCAR-4 ovarian
[22] = test system: ACHN renal
[23] = test system: NCI-H460 lung
[24] = test system: MCF7 breast
[25] = test system: OVCAR-5 ovarian
[26] = test system: UACC-62 melanoma
[27] = test system: HCT-116 colon
[28] = test system: OVCAR-8 ovarian
[29] = test system: SK-MEL-2 melanoma
[30] = test system: TK-10 renal
[31] = test system: HCT-15 colon
[32] = test system: SNB-19 CNS
[33] = test system: SR leukemia
[34] = test system: RPMI-8226 leukemia
[35] = test system: SF-539 CNS
[36] = test system: NCI-H522 lung
[37] = test system: EKVX NSCLC
[38] = test system: PC-3 prostate
[39] = test system: U251 CNS
[40] = test system: MOLT-4 leukemia
[41] = test system: UO-31 renal
[42] = test system: HT29 colon
[43] = test system: A549 NSCLC
[44] = test system: CCRF-CEM leukemia
[45] = test system: SF-295 CNS
[46] = test system: CAKI-1 renal
[47] = test system: OVCAR-3 ovarian
[48] = test system: HL-60(TB) leukemia
[49] = test system: 786-0 renal
[50] = test system: SF-268 CNS
[51] = test system: NCI-H226 lung
[52] = test system: HS 578T breast
[53] = test system: MDA-N
[54] = test system: MDA-MB-231 breast

## COc1cc(C2S/C(=C/c3ccccc3)C(=O)N2c2cccc(Cl)c2)cc(OC)c1OC (centres undefined)
[1]
  TGI: > 100 µM
[2]
  TGI: > 100 µM
[3]
  TGI: 55.1 µM
[4]
  TGI: > 100 µM
[5]
  TGI: 81.8 µM
[6]
  TGI: > 100 µM
[7]
  TGI: > 100 µM
[8]
  TGI: > 100 µM
[9]
  TGI: > 100 µM
[10]
  TGI: > 100 µM
[11]
  TGI: > 100 µM
[12]
  TGI: 57.8 µM
[13]
  TGI: > 100 µM
[14]
  TGI: > 100 µM
[15]
  TGI: > 100 µM
[16]
  TGI: 68.4 µM
[17]
  TGI: > 100 µM
[18]
  TGI: > 100 µM
[19]
  TGI: > 100 µM
[20]
  TGI: 86.8 µM
[21]
  TGI: > 100 µM
[22]
  TGI: > 100 µM
[23]
  TGI: > 100 µM
[24]
  TGI: > 100 µM
[25]
  TGI: > 100 µM
[26]
  TGI: > 100 µM
[27]
  TGI: > 100 µM
[28]
  TGI: > 100 µM
[29]
  TGI: > 100 µM
[30]
  TGI: > 100 µM
[31]
  TGI: > 100 µM
[32]
  TGI: > 100 µM
[33]
  TGI: 83.3 µM
[34]
  TGI: > 100 µM
[35]
  TGI: > 100 µM
[36]
  TGI: 41.7 µM
[37]
  TGI: > 100 µM
[38]
  TGI: > 100 µM
[39]
  TGI: > 100 µM
[40]
  TGI: > 100 µM
[41]
  TGI: > 100 µM
[42]
  TGI: > 100 µM
[43]
  TGI: > 100 µM
[44]
  TGI: 73.4 µM
[45]
  TGI: > 100 µM
[46]
  TGI: > 100 µM
[47]
  TGI: > 100 µM
[48]
  TGI: > 100 µM
[49]
  TGI: > 100 µM
[50]
  TGI: > 100 µM
[51]
  TGI: > 100 µM
[52]
  TGI: > 100 µM
[53]
  TGI: > 100 µM
[54]
  TGI: > 100 µM
